Where “and” joins values, the source holds several entries; their conditions need not be identical. Equal entries are not always repeated. Where two headings read alike, the source gives them in different places.
Key:
[1] = test system: Bacillus subtilis ATCC 6633; assay: MIC determination; assay type: cell-based; conditions: for MIC: read-out: MIC B. subtilis
Protocol: (§1) S2 Antibacterial activity
(§2) The antimicrobial activity of the compounds was evaluated by determining their respective MIC values towards two Gram–(–) (Escherichia coli NCTC 29212 (E. coli) and Xanthomonas campestris ATCC 1395 (X. campestris)) and two Gram–(+) (Staphylococcus aureus ATCC 6538 (S. aureus) and Bacillus subtilis ATCC 6633 (B. subtilis)) bacterial species. Cultures of these microbial strains were grown on a rich selective agar medium and stored at 4°C. The selective media used were Nutrient Agar or Broth for B. subtilis and S. aureus, Yeast Mold Agar or Broth for X. campestris and Luria Agar or Broth for E. coli. Cells picked from the surface of the stored cultures were used to initiate liquid pre–cultures of the same selective medium at an initial turbidity of roughly 1 McFarland unit. Pre–cultures were incubated for 24 h in a rotary shaking incubator and subsequently they were used to inoculate the test cultures used for the determination of MIC at an initial turbidity of 0.5 McFarland units. The test cultures consisted of Mueller –Hinton broth (Deben Diagnostics Ltd) containing different concentrations of the compounds.
(§3) Different concentrations were achieved as follows: the compounds were freshly dissolved in DMSO to a concentration of 1 mg mL–1 and they were diluted with DMSO, using the method of progressive double dilution. Therefore, working solutions with decreasing concentrations of the compounds under investigation were achieved. The working solutions were subsequently diluted to the final desired concentration by addition to the growth medium at a proportion of 2:98. MIC values were determined as the lowest concentrations of the tested compounds that inhibited visible growth of each respective organism after a 24 h incubation [ S3]. Bacterial growth was determined by measuring the turbidity of appropriately diluted cultures at 600 nm with reference to equally diluted sterile growth medium and the inhibition achieved was calculated by comparing the turbidity of each culture to the average of the turbidity of three non–inhibited cultures. All test cultures were grown in triplicates and for the determination of MIC, growth had to be inhibited in at least two cultures of the triplicate. Incubation temperature at all stages was 37°C except for X. campestris that was cultivated at 28°C [S4].

[2] = test system: Escherichia coli NCTC 29212; assay: MIC determination; assay type: cell-based; conditions: for MIC: read-out: MIC E. coli
Protocol: as §1, §2, §3

[3] = test system: Staphylococcus aureus ATCC 6538; assay: MIC determination; assay type: cell-based; conditions: for MIC: read-out: MIC S. aureus
Protocol: as §1, §2, §3

[4] = test system: Xanthomonas campestris ATCC 1395; assay: MIC determination; assay type: cell-based; conditions: for MIC: Xanthomonas campestris, ATCC1395, 24 h, read-out: MIC X. campestris; for MIC X. campestris: 24 h
Protocol: as §1, §2, §3

HSA = target: T1, HSA (Homo sapiens, UniProt P02768); assay: Competitive HSA-fluorescence studies with warfarin and ibuprofen; assay type: binding
T1 construct: purchased Sigma-Aldrich Co

[5] = test system: S. aureus, B. subtilis, E. coli, X. campestris; assay: MIC stated for all tested bacterial strains; assay type: cell-based; conditions: all tested microbes
Protocol: as §1, §2, §3

BSA [6] = target: T2, BSA (Bos taurus, UniProt P02769); assay: BSA fluorescence quenching; assay type: binding, bovine; conditions: for ΔΙ/Ιο (%) BSA fluorescence quenching: BSA 3 μM; for K BSA-binding constant: Scatchard; for relative BSA-fluorescence emission intensity, % of the initial: final value
T2 construct: purchased Sigma-Aldrich Co
Protocol: S4 Interaction with serum albumins
S4.1 Study of the affinity for serum albumins
The albumin–binding study for the compounds was carried out by fluorescence emission quenching experiments using BSA (3 μM) or HSA (3 μM) in buffer solution (15 mM trisodium citrate and 150 mM NaCl at pH 7.0). The tested compounds were used as quenchers with gradually increasing concentrations to monitor the quenching of the emission intensity of tryptophan residues of BSA at 345 nm or HSA at 340 nm [S6]. The fluorescence emission spectra were recorded between 300–500 nm with excitation wavelength of 295 nm. All the experiments were conducted at room temperature. The fluorescence spectra of the compounds were recorded under the same experimental conditions and presented a low–intensity emission band in the region 395–415 nm.
Consequently, the SA fluorescence emission spectra were modified properly, by subtracting the spectra of the compounds, and quantitative studies followed.
The extent of the inner–filter effect can be roughly estimated with the following formula: […]
where Icorr= corrected intensity, Imeas= the measured intensity, c = the concentration of the quencher, d = the cuvette length (1 cm), ε(λexc) and ε(λem) = the ε of the quencher at the excitation and the emission wavelength, respectively, as calculated from the UV –vis spectra of the complexes [S 8].
The interaction of the quencher (i.e. compounds) with serum albumins [S6] was studied through the Stern–Volmer and Scatchard equations [S6] and corresponding graphs. The values of the respective Stern–Volmer constant KSV (M–1), the quenching constant k q (M–1s–1), the SA– binding constant K (M–1) and the number of binding sites per albumin (n) were calculated.
According to Stern–Volmer quenching equation [S6] (eq. S2), where I 0 = the initial tryptophan fluorescence intensity of SA, I = the tryptophan fluorescence intensity of SA after the addition of the quencher, kq = the quenching rate constants of SA, K SV = the dynamic quenching constant, τ0 = the average lifetime of SA without the quencher, [Q] = the concentration of the quencher), the Stern –Volmer constant (KSV, M–1) can be obtained by the slope of the diagram I0/I versus [Q]. Taking τ0 = 10–8 s as fluorescence lifetime of tryptophan in SA [S2], the quenching constant (kq, M–1s–1) is calculated from equation S3.
From the Scatchard equation (eq. S5) [S6]: […]
(1 picture or pasted object on this page, not shown here) […]
where n = the number of binding sites per albumin and K = the SA–binding constant. The K constant (M−1) is calculated from the slope in plots (ΔI/I0)/[Q] versus (ΔI/I0) and n is given by the ratio of y intercept to the slope [S9]. […]

BSA [7] = target: T2, BSA; conditions: cited from earlier work
EB-DNA adduct (CT DNA) = conditions: cited from earlier work
CT DNA = conditions: cited from earlier work
[8] = Bacillus subtilis, ATCC6633, 24 h
[9] = Escherichia coli, NCTC29212, 24 h
[10] = Staphylococcus aureus, ATCC6538, 24 h
[11] = read-out: HSA-binding constant K, Marker: Ibuprofen, ibuprofen
[12] = read-out: HSA-binding constant K, Marker: Warfarin, warfarin

T2 sequence (P02769 25-607): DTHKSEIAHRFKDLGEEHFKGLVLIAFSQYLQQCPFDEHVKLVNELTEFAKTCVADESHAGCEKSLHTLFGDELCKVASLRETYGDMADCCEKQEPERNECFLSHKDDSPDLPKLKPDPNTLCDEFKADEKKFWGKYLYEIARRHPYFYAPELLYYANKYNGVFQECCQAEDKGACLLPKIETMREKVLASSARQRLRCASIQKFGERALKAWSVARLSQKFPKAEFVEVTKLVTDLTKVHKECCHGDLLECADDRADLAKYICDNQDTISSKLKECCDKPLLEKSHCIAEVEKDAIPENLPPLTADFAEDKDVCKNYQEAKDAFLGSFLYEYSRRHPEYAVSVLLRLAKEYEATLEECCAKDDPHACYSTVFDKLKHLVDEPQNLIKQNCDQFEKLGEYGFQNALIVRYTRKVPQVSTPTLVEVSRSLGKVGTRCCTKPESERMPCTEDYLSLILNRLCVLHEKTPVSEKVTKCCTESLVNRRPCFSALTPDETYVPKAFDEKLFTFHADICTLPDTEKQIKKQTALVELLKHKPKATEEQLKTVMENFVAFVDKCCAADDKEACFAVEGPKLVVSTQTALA
T1 sequence (P02768 25-609): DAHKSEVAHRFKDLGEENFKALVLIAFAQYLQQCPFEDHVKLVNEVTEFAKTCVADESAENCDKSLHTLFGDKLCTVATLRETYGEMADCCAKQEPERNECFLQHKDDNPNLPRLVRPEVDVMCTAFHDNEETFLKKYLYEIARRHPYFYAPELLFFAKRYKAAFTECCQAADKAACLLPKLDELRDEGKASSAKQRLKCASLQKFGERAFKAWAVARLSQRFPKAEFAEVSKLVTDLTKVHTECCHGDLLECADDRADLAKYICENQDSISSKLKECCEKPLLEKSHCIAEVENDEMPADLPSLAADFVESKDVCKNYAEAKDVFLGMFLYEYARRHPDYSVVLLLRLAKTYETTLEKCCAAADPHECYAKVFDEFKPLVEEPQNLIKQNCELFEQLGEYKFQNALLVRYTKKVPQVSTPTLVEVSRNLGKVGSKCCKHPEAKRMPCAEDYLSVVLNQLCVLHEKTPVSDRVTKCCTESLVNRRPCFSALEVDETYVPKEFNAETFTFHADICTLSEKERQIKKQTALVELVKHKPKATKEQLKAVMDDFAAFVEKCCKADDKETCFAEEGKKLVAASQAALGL

Row | Structure (SMILES) | MIC [1, 8] | MIC [2, 9] | MIC [3, 10] | MIC [4] | Kd (HSA) [µM] | kq BSA-quenching constant (BSA [6]) | MIC B. subtilis ([1]; 24 h) [µg/mL] | MIC ([1]; 24 h, value in parentheses) [µM] | MIC E. coli ([2]; 24 h) [µg/mL] | MIC ([2]; 24 h, value in parentheses) [µM] | MIC S. aureus ([3]; 24 h) [µg/mL] | MIC ([3]; 24 h, value in parentheses) [µM] | MIC X. campestris [4] [µg/mL] | MIC X. campestris ([4]; value in parentheses) [µM] | HSA-binding constant K, Marker: Ibuprofen (HSA; ibuprofen) | HSA-binding constant K, No Marker (HSA) | HSA-binding constant K, Marker: Warfarin (HSA; warfarin) | ΔΙ/Ιο (%) BSA fluorescence quenching (BSA [6]) [%] | K BSA-binding constant (BSA [6]) | relative BSA-fluorescence emission intensity, % of the initial (BSA [6]) [%] | also measured
1 | CCN(CC)c1ccc(C=O)c(O)c1 [4-Et2N-saloH, 4-diethylamino-salicylaldehyde, reference compound] | > 200 µg/mL and > 1040 µM | > 200 µg/mL and > 1040 µM | > 200 µg/mL and > 1040 µM | > 200 µg/mL and > 1040 µM | 2.48 | 1.41 (±0.06) × 10^13 M^−1 s^−1 |  |  |  |  |  |  |  |  |  |  |  |  |  |  | Kd (HSA; [11]): 23.8 µM; Kd (HSA; [12]): 4.39 µM; MIC ([5]; read-out: MIC): > 200 µg/mL; Kd (BSA [6]): 2.4 µM
2 | COc1ccc(C=O)c(O)c1 [4-OMe-saloH, 4-methoxy-salicylaldehyde, reference compound] | > 200 µg/mL and > 1310 µM | > 200 µg/mL and > 1310 µM | > 200 µg/mL and > 1310 µM | > 200 µg/mL and > 1310 µM | 10.3 |  |  |  |  |  |  |  |  |  |  |  |  |  |  |  | Kd (HSA; [11]): 21.3 µM; Kd (HSA; [12]): 60.2 µM; MIC ([5]; read-out: MIC): > 200 µg/mL; K BSA-binding constant (BSA [7]): 4.11 (±0.23) × 10^5 M^−1; kq BSA-quenching constant (BSA [7]): 1.16 (±0.14) × 10^13 M^−1 s^−1; KSV (Stern–Volmer constant), EB-DNA (EB-DNA adduct (CT DNA)): 5.19 (±0.17) × 10^4 M^−1; kq (EB-DNA quenching constant) (EB-DNA adduct (CT DNA)): 2.26 (±0.07) × 10^12 M^−1s^−1; ΔΙ/Ι0 (%) EB-DNA fluorescence quenching (EB-DNA adduct (CT DNA)): 62.5%; Kb (DNA-binding constant) (CT DNA): 9.25 (±0.12) × 10^5 M^−1
3 | O=Cc1cc(F)ccc1O [5-F-saloH, 5-fluoro-salicylaldehyde, reference compound] | 200 µg/mL and 1430 µM | 200 µg/mL and 1430 µM | 200 µg/mL and 1430 µM | 200 µg/mL and 1430 µM | 21.5 | 1.98 (±0.08) × 10^12 M^−1 s^−1 |  |  |  |  |  |  |  |  |  |  |  |  |  |  | Kd (HSA; [11]): 16.1 µM; Kd (HSA; [12]): 33.1 µM; Kd (BSA [6]): 23.2 µM
4 | CCN(CC)c1ccc(C=O)c([O][Pd][O]c2cc(N(CC)CC)ccc2C=O)c1 [Complex 1, [Pd(4-Et2N-salo)2]] |  |  |  |  |  | 5.72 (±0.44) × 10^13 M^−1 s^−1 | 100 | 204 | 100 | 204 | 100 | 204 | 200 | 407 | 1.86 (±0.12) × 10^5 M^−1 | 1.25 (±0.06) × 10^5 M^−1 | 6.89 (±0.28) × 10^4 M^−1 | 92.9 | 1.08 (±0.06) × 10^5 M^−1 | 7.2 | 
5 | O=Cc1cc(Br)cc(Br)c1[O][Pd][O]c1c(Br)cc(Br)cc1C=O [Complex 2, [Pd(3,5-diBr-salo)2]] |  |  |  |  |  | 2.11 (±0.08) × 10^14 M^−1 s^−1 | 25 | 38 | 25 | 38 | 25 | 38 | 25 | 38 | 3.23 (±0.13) × 10^5 M^−1 | 4.12 (±0.15) × 10^5 M^−1 | 1.43 (±0.09) × 10^5 M^−1 | 97.5 | 1.50 (±0.06) × 10^6 M^−1 | 2.5 | MIC [5]: 25 μg/mL and 38 μM
6 | O=Cc1cc(Cl)cc(Cl)c1[O-].O=Cc1cc(Cl)cc(Cl)c1[O-].[Pd+2] [Complex 3, [Pd(3,5-diCl-salo)2]] |  |  |  |  |  | 1.11 (±0.04) × 10^14 M^−1 s^−1 | 50 | 103 | 25 | 51 | 25 | 51 | 25 | 51 | 3.78 (±0.14) × 10^5 M^−1 | 4.10 (±0.17) × 10^5 M^−1 | 2.47 (±0.09) × 10^5 M^−1 | 97.2 | 7.82 (±0.24) × 10^5 M^−1 | 2.8 | 
7 | O=Cc1cc(F)ccc1[O-].O=Cc1cc(F)ccc1[O-].[Pd+2] [Complex 4, [Pd(5-F-salo)2]] |  |  |  |  |  | 2.24 (±0.14) × 10^13 M^−1 s^−1 | 100 | 259 | 100 | 259 | 100 | 259 | 100 | 259 | 1.10 (±0.08) × 10^5 M^−1 | 1.38 (±0.05) × 10^5 M^−1 | 8.98 (±0.82) × 10^4 M^−1 | 85.7 | 8.79 (±0.13) × 10^4 M^−1 | 14.3 | 
8 | COc1ccc(C=O)c([O-])c1.COc1ccc(C=O)c([O-])c1.[Pd+2] [Complex 5, [Pd(4-OMe-salo)2]] |  |  |  |  |  | 2.17 (±0.09) × 10^14 M^−1 s^−1 | 100 | 245 | 100 | 245 | 100 | 245 | 100 | 245 | 1.45 (±0.17) × 10^4 M^−1 | 3.56 (±0.12) × 10^5 M^−1 | 1.00 (±0.18) × 10^5 M^−1 | 97.2 | 9.18 (±0.27) × 10^5 M^−1 | 2.8 | HSA drug site preference (HSA; drug site I (warfarin) vs II (ibuprofen)): did not seem to show firmly a selectivity
